Assay results reported in patent publication US8450332B2, “LIMK2 inhibitors, compositions comprising them, and methods of their use” (Lexicon Pharmaceuticals, Inc., priority 2008, dated 2013).

These molecules were tested against T1, LIMK2 (Homo sapiens, UniProt P53671) (assay: In vitro LIMK2 inhibition assay (33P incorporation into myelin basic protein flash plates)).
T1 construct: His tag (histidine-tagged; pFastBacHT vector); made in house; host or cells: Sf9 insect cells (BAC-to-BAC baculovirus system)
T1 sequence (P53671 whole entry): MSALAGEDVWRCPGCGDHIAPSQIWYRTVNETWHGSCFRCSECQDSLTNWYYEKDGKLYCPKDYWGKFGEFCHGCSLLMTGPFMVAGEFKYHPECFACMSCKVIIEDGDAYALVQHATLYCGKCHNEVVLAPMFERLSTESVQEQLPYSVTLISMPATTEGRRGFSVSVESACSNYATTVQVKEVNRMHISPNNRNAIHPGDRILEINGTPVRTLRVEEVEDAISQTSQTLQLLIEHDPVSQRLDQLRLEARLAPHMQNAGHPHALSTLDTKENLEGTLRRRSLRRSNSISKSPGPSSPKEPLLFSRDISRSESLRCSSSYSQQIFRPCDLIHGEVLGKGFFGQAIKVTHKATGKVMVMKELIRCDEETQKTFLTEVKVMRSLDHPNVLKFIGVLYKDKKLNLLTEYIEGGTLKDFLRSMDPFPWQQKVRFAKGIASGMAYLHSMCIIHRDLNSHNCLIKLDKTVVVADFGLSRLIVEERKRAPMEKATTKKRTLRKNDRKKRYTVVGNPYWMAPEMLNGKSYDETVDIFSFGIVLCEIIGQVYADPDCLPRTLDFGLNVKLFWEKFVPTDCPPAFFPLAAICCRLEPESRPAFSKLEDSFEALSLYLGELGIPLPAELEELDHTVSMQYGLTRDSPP
Type: biochemical
Procedure: Using the procedures described herein and methods known in the art, the additional compounds listed below in Table 1 were prepared. The LIMK2 IC50 data that is provided below for some of the compounds was determined using the assay described in Example 32.
An in vitro assay used to identify LIMK2 inhibitors was developed. The analytical readout was the incorporation of ^33P from ATP substrate into immobilized myelin basic protein coated flash plates (Perkin Elmer Biosciences), which were counted on a scintillation counter equipped with a plate reader (TopCount, Packard Bioscience, Meriden, Conn.). Using 384 well flat MBP flashplates, total assay volume was 50 μl. The HTS program utilized a Biomek FX for dilution.
For each assay, the ingredients and conditions were as follows: 200 ng of enzyme was incubated in assay buffer (1× assay buffer contains 30 mM HEPES (pH 8.0), 5 mM DTT, and 10 mM MgCl2), 10 μM ATP, 0.2 μCi [gamma-^33P]-ATP and 10 μM of potential inhibitory compound. The reaction was incubated at room temperature for 60 minutes, washed 3 times with 75 μl of stop/wash buffer (1× stop/was buffer contains 50 mM EDTA and 20 mM Tris (pH 7.4)), and then the plates were read on the scintillation counter. Different concentrations of staurosporine (400 nM, 200 nM, 100 nM and 50 nM; purchased from BIOMOL (Plymouth Meeting, Pa.)) were used as controls on each plate.
In the case of COCCOc1cccc(NC(=O)C2(CN)CCN(c3ncnc4[nH]cc(C)c34)CC2)c1 [4-(aminomethyl)-N-(3-(2-methoxyethoxy)phenyl)-1-(5-methyl-7H-pyrrolo[2,3-d]pyrimidin-4-yl)piperidine-4-carboxamide], the IC50 is reported as < 250 nM. In the case of Cc1c[nH]c2ncnc(N3CCC(CN)(C(=O)Nc4cccc(C(=O)N(C)C)c4)CC3)c12 [4-(aminomethyl)-N-(3-(dimethylcarbamoyl)phenyl)-1-(5-methyl-7H-pyrrolo[2,3-d]pyrimidin-4-yl)piperidine-4-carboxamide], the IC50 is reported as < 250 nM. In the case of Cc1c[nH]c2ncnc(N3CCC(CN)(C(=O)Nc4cccc(C(=O)NC(C)C)c4)CC3)c12 [4-(aminomethyl)-N-(3-(isopropylcarbamoyl)phenyl)-1-(5-methyl-7H-pyrrolo[2,3-d]pyrimidin-4-yl)piperidine-4-carboxamide], the IC50 is reported as < 250 nM. In the case of Cc1c[nH]c2ncnc(N3CCC(CN)(C(=O)Nc4cccc(Br)c4)CC3)c12 [4-(aminomethyl)-N-(3-bromophenyl)-1-(5-methyl-7H-pyrrolo[2,3-d]pyrimidin-4-yl)piperidine-4-carboxamide], the IC50 is reported as < 250 nM. For Cc1c[nH]c2ncnc(N3CCC(CN)(C(=O)Nc4cccc(Cl)c4)CC3)c12 [4-(aminomethyl)-N-(3-chlorophenyl)-1-(5-methyl-7H-pyrrolo[2,3-d]pyrimidin-4-yl)piperidine-4-carboxamide], the IC50 was < 250 nM. With Cc1c[nH]c2ncnc(N3CCC(CN)(C(=O)Nc4cccc(C#N)c4)CC3)c12 [4-(aminomethyl)-N-(3-cyanophenyl)-1-(5-methyl-7H-pyrrolo[2,3-d]pyrimidin-4-yl)piperidine-4-carboxamide] the IC50 was < 250 nM. For Cc1c[nH]c2ncnc(N3CCC(CN)(C(=O)Nc4cccc(F)c4)CC3)c12 [4-(aminomethyl)-N-(3-fluorophenyl)-1-(5-methyl-7H-pyrrolo[2,3-d]pyrimidin-4-yl)piperidine-4-carboxamide], the IC50 was < 250 nM. Cc1c[nH]c2ncnc(N3CCC(CN)(C(=O)Nc4cccc(O)c4)CC3)c12 [4-(aminomethyl)-N-(3-hydroxyphenyl)-1-(5-methyl-7H-pyrrolo[2,3-d]pyrimidin-4-yl)piperidine-4-carboxamide] was tested, and the IC50 was < 250 nM. For Cc1c[nH]c2ncnc(N3CCC(CN)(C(=O)Nc4cccc(OC(C)C)c4)CC3)c12 [4-(aminomethyl)-N-(3-isopropoxyphenyl)-1-(5-methyl-7H-pyrrolo[2,3-d]pyrimidin-4-yl)piperidine-4-carboxamide], the IC50 was < 250 nM. For COc1cccc(NC(=O)C2(CN)CCN(c3ncnc4[nH]cc(C)c34)CC2)c1 [4-(aminomethyl)-N-(3-methoxyphenyl)-1-(5-methyl-7H-pyrrolo[2,3-d]pyrimidin-4-yl)piperidine-4-carboxamide], the IC50 was < 250 nM. For Cc1c[nH]c2ncnc(N3CCC(CN)(C(=O)Nc4cccc(C(C)(C)C)c4)CC3)c12 [4-(aminomethyl)-N-(3-tert-butylphenyl)-1-(5-methyl-7H-pyrrolo[2,3-d]pyrimidin-4-yl)piperidine-4-carboxamide], the IC50 was < 250 nM. In the case of C=CCC1(C(=O)Nc2cccc(Oc3ccc(F)cc3)c2)CCN(c2ncnc3[nH]cc(C)c23)CC1 [4-allyl-N-(3-(4-fluorophenoxy)phenyl)-1-(5-methyl-7H-pyrrolo[2,3-d]pyrimidin-4-yl)piperidine-4-carboxamide], the IC50 is reported as < 250 nM. With C=CCC1(C(=O)Nc2cccc(Br)c2)CCN(c2ncnc3[nH]cc(C)c23)CC1 [4-allyl-N-(3-bromophenyl)-1-(5-methyl-7H-pyrrolo[2,3-d]pyrimidin-4-yl)piperidine-4-carboxamide] the IC50 was < 250 nM. In the case of C=CCC1(C(=O)Nc2cccc(F)c2)CCN(c2ncnc3[nH]cc(C)c23)CC1 [4-allyl-N-(3-fluorophenyl)-1-(5-methyl-7H-pyrrolo[2,3-d]pyrimidin-4-yl)piperidine-4-carboxamide], the IC50 is reported as < 250 nM. C=CCC1(C(=O)Nc2cccc(OC)c2)CCN(c2ncnc3[nH]cc(C)c23)CC1 [4-allyl-N-(3-methoxyphenyl)-1-(5-methyl-7H-pyrrolo[2,3-d]pyrimidin-4-yl)piperidine-4-carboxamide] was tested, and the IC50 was < 250 nM. With C=CCC1(C(=O)Nc2cccc(C(C)(C)C)c2)CCN(c2ncnc3[nH]cc(C)c23)CC1 [4-allyl-N-(3-tert-butylphenyl)-1-(5-methyl-7H-pyrrolo[2,3-d]pyrimidin-4-yl)piperidine-4-carboxamide] the IC50 was < 250 nM. Cc1c[nH]c2ncnc(N3CCC(C)(C(=O)Nc4cccc(C(F)(F)F)c4)CC3)c12 [4-methyl-1-(5-methyl-7H-pyrrolo[2,3-d]pyrimidin-4-yl) N-(3-(trifluoromethyl)phenyl)piperidine-4-carboxamide] was tested, and the IC50 was < 250 nM. With Cc1c[nH]c2ncnc(N3CCC(C)(C(=O)Nc4cccc(S(=O)(=O)N5CCOCC5)c4)CC3)c12 [4-methyl-1-(5-methyl-7H-pyrrolo[2,3-d]pyrimidin-4-yl)-N-(3-(morpholinosulfonyl)phenyl)piperidine-4-carboxamide] the IC50 was < 250 nM. For Cc1cccc(NC(=O)C2(C)CCN(c3ncnc4[nH]cc(C)c34)CC2)c1 [4-methyl-1-(5-methyl-7H-pyrrolo[2,3-d]pyrimidin-4-yl)-N-m-tolylpiperidine-4-carboxamide], the IC50 was < 250 nM. For Cc1c[nH]c2ncnc(N3CCC(C)(C(=O)Nc4ccccc4)CC3)c12 [4-methyl-1-(5-methyl-7H-pyrrolo[2,3-d]pyrimidin-4-yl)-N-phenylpiperidine-4-carboxamide], the IC50 was < 250 nM. In the case of Cc1c[nH]c2ncnc(N3CCC(CNC(=O)[C@@H](N)CCCN)(C(=O)Nc4cccc(OC(=O)N(C)C)c4)CC3)c12 [(S)-3-(4-((2,5-diaminopentanamido)methyl)-1-(5-methyl-7H-pyrrolo[2,3-d]pyrimidin-4-yl)piperidine-4-carboxamido)phenyl dimethylcarbamate], the IC50 is reported as < 250 nM. With Cc1c[nH]c2ncnc(N3CCC(CNC(=O)[C@@H](N)Cc4c[nH]cn4)(C(=O)Nc4cccc(OC(=O)N(C)C)c4)CC3)c12 [(S)-3-(4-((2-amino-3-(1H-imidazol-4-yl)propanamido)methyl)-1-(5-methyl-7H-pyrrolo[2,3-d]pyrimidin-4-yl)piperidine-4-carboxamido)phenyl dimethylcarbamate] the IC50 was < 250 nM. Cc1c[nH]c2ncnc(N3CCC(CNC(=O)[C@@H](N)CO)(C(=O)Nc4cccc(OC(=O)N(C)C)c4)CC3)c12 [(S)-3-(4-((2-amino-3-hydroxypropanamido)methyl)-1-(5-methyl-7H-pyrrolo[2,3-d]pyrimidin-4-yl)piperidine-4-carboxamido)phenyl dimethylcarbamate] was tested, and the IC50 was < 250 nM. Cc1c[nH]c2ncnc(N3CCC(C)(C(=O)Nc4cccc(CC(=O)N(C)C)c4)CC3)c12 [N-(3-(2-(dimethylamino)-2-oxoethyl)phenyl)-4-methyl-1-(5-methyl-7H-pyrrolo[2,3-d]pyrimidin-4-yl)piperidine-4-carboxamide] was tested, and the IC50 was < 250 nM. Cc1c[nH]c2ncnc(N3CCC(C)(C(=O)Nc4cccc(Oc5ccc(F)cc5)c4)CC3)c12 [N-(3-(4-fluorophenoxy)phenyl)-4-methyl-1-(5-methyl-7H-pyrrolo[2,3-d]pyrimidin-4-yl)piperidine-4-carboxamide] was tested, and the IC50 was < 250 nM. In the case of Cc1c[nH]c2ncnc(N3CCC(C)(C(=O)Nc4cccc(S(=O)(=O)NC(C)C)c4)CC3)c12 [N-(3-(N-isopropylsulfamoyl)phenyl)-4-methyl-1-(5-methyl-7H-pyrrolo[2,3-d]pyrimidin-4-yl)piperidine-4-carboxamide], the IC50 is reported as < 250 nM. Cc1c[nH]c2ncnc(N3CCC(C)(C(=O)Nc4ccc(F)c(Br)c4)CC3)c12 [N-(3-bromo-4-fluorophenyl)-4-methyl-1-(5-methyl-7H-pyrrolo[2,3-d]pyrimidin-4-yl)piperidine-4-carboxamide] was tested, and the IC50 was < 250 nM. With CC1(C(=O)Nc2cccc(Br)c2)CCN(c2ncnc3[nH]cc(Cl)c23)CC1 [N-(3-bromophenyl)-1-(5-chloro-7H-pyrrolo[2,3-d]pyrimidin-4-yl)-4-methylpiperidine-4-carboxamide] the IC50 was < 250 nM. With Cc1c[nH]c2ncnc(N3CCC(C)(C(=O)Nc4cccc(Br)c4)CC3)c12 [N-(3-bromophenyl)-4-methyl-1-(5-methyl-7H-pyrrolo[2,3-d]pyrimidin-4-yl)piperidine-4-carboxamide] the IC50 was < 250 nM. For Cc1c[nH]c2ncnc(N3CCC(C)(C(=O)Nc4cccc(NC(=O)C(C)C)c4)CC3)c12 [N-(3-isobutyramidophenyl)-4-methyl-1-(5-methyl-7H-pyrrolo[2,3-d]pyrimidin-4-yl)piperidine-4-carboxamide], the IC50 was < 250 nM. With COc1ccc(NC(=O)C2(C)CCN(c3ncnc4[nH]cc(C)c34)CC2)cc1 [N-(4-methoxyphenyl)-4-methyl-1-(5-methyl-7H-pyrrolo[2,3-d]pyrimidin-4-yl)piperidine-4-carboxamide] the IC50 was < 250 nM. In the case of COC(=O)c1nnn(CC2(C(=O)Nc3cccc(OC(=O)N(C)C)c3)CCN(c3ncnc4[nH]cc(C)c34)CC2)c1C(=O)OC [dimethyl 1-((4-(3-(dimethylcarbamoyloxy)phenylcarbamoyl)-1-(5-methyl-7H-pyrrolo[2,3-d]pyrimidin-4-yl)piperidin-4-yl)methyl)-1H-1,2,3-triazole-4,5-dicarboxylate], the IC50 is reported as < 250 nM.
